Series [1] relates to neonatal rat ventricular myocytes (NRVM). The method, then:
NRVM culture. […] Myocyte preparations were pre-plated in Dulbecco's modified Eagle's medium (DMEM, Cellgro), supplemented with 10% (v/v) fetal bovine serum (FBS, HyClone), 4 mM L-glutamine and 1% penicillin/streptomycin for 1 hr at 37° C. to reduce fibroblast contamination, then plated at a density of 2.5×10^5 cells per well on 6-well tissue culture plates (or 10,000 cells/well on 96-well tissue culture plates) coated with a 0.2% (w/v) gelatin solution.
For infection with calcineurin adenovirus, NRVM were exposed to adenovirus at a multiplicity of infection (MOI) of 25 for 48 h prior to analysis.
Hypertrophy and Toxicity Assays. Primary hypertrophy endpoints for NRVM included quantitation of ANF secretion, total cellular protein and cell volume. ANF in media supernatants was quantitated by competitive ELISA using a monoclonal anti-ANF antibody (Biodesign) and a biotinylated ANF peptide (Phoenix Peptide). Total cellular protein was quantitated by standard Coomassie dye-binding assay; cells were lysed in protein assay reagent (BioRad) and absorbance at A595 was measured after 1 hr. […] After recovery by centrifugation, cell pellets were washed in PBS, resuspended in 10 ml IsoFlow electrolyte solution (Beckman-Coulter) and analyzed with a Z2 Coulter Particle Counter and Size Analyzer (Beckman-Coulter). […]

The subject of series [2] is MCIP1 protein (indicator of calcineurin activity) in NRVM. Briefly: Western blot of MCIP1 protein in NRVM. It counts as cell-based, rat. To be noted: for expression of 38 kDa calcineurin-independent MCIP1 isoform: NRVM. The method, then:
(§1) Western Blots. For protein sample preparation, cultured cells were lysed in extraction buffer (50 mM Tris, pH 7.5, 150 mM NaCl, 1% Triton X-100, 0.5% deoxycholic acid, 0.1% SDS) supplemented with protease inhibitors (1 mM AEBSF, 10 mg/ml aprotinin, 0.1 mM leupeptin, 2 mM EDTA). Left ventricle samples were ground under liquid nitrogen and solubilized in extraction buffer containing protease inhibitors. Homogenates were centrifuged 10 min at 4° C. at 16,000 g and supernatants recovered. Protein concentrations were determined by the bicinchoninic acid method (BCA Protein Assay, Pierce) with bovine serum albumin as a standard. Equivalent quantities of protein samples ([…]) were denatured in Laemmli buffer and resolved on Tris-glycine SDS-PAGE gels (4-20% acrylamide gradient, Invitrogen). Resolved proteins were transferred to nitrocellulose membranes, blocked in 5% nonfat dry milk, and probed with rabbit polyclonal primary antibody (diluted in TBST; 50 mM Tris, pH 7.5, 150 mM NaCl, 0.1% Tween-20) supplemented with 5% nonfat dry milk. Primary antibodies used include: anti-TRPC1 and TRPC3 (Alomone Labs) and anti-MCIP1 (Myogen, Inc). Membranes were washed, probed with a goat anti-rabbit horseradish peroxidase-conjugated secondary antibody (Southern Biotechnology Associates), and processed for enhanced chemiluminescence (SuperSignal reagent, Pierce). To verify equivalent protein loading, membranes were subsequently reprobed with a polyclonal rabbit antibody to the housekeeping gene IP90-calnexin. Densitometric analysis of immunoreactive band images was performed using a ChemiImager (Alpha Innotech).

In series [3] the test system is TRPC3 protein in NRVM. Briefly: Western blot of TRPC3 protein in cultured NRVM exposed to hypertrophic stimuli. To be noted: 48 h, phenylephrine, FBS 10%, calcineurin adenovirus MOI 25. It counts as cell-based, rat. The method, then:
as §1, with “To verify equivalent protein loading, membranes were subsequently reprobed with a polyclonal rabbit antibody to the housekeeping gene IP90-calnexin. Densitometric analysis of immunoreactive band images was performed using a ChemiImager (Alpha Innotech).” left out
On the technique in general: A western blot detects proteins with antibodies after separation by electrophoresis.

Series [4] can be described thus: Isoproterenol infusion model, heart weight to body weight ratio. To be noted: rat, isoproterenol 4.8 mg/kg/d by osmotic minipump, 4 days. Type of series: in vivo. Here is the method:
Isoproterenol Infusion. For pharmacologic induction of hypertrophy in vivo, nine to ten-week-old male Sprague-Dawley rats were anesthetized via passive inhalation of 2.0% isoflurane. When a level of surgical anesthesia was reached, an osmotic minipump (Alzet model 2001, Alza Corp., Palo Alto, Calif.) containing either vehicle (0.1% ascorbic acid in 0.9% NaCl), or isoproterenol (4.8 mg/kg/d) was subcutaneously implanted into the back between the scapulae followed by closure with 3-0 silk sutures. After 4 days of recovery, animals were sacrificed and left ventricular tissue processed for Western blot analysis as described above. Average heart weight to body weight ratios in isoproterenol versus vehicle-infused rats increased 48% (data not shown).

Series [5] concerns TRPC channel protein in left ventricle. Briefly: Isoproterenol infusion model, Western blot of TRPC isoforms in left ventricle. Type of series: in vivo, rat. Here is the method:
as §1, with “Innotech). Isoproterenol Infusion. For pharmacologic induction of hypertrophy in vivo, nine to ten-week-old male Sprague-Dawley rats were anesthetized via passive inhalation of 2.0% isoflurane. When a level of surgical anesthesia was reached, an osmotic minipump (Alzet model 2001, Alza Corp., Palo Alto, Calif.) containing either vehicle (0.1% ascorbic acid in 0.9% NaCl), or isoproterenol (4.8 mg/kg/d) was subcutaneously implanted into the back between the scapulae followed by closure with 3-0 silk sutures. After 4 days of recovery, animals were sacrificed and left ventricular tissue processed for Western blot analysis as described above. Average heart weight to body weight ratios in isoproterenol versus vehicle-infused rats increased 48% (data not shown).” for “Innotech).”

For series [6], the system named is ryanodine receptors. To be noted: Maruyama et al., 1997; cited from earlier work.
In series [7] the test system is voltage-gated calcium channels. To be noted: Maruyama et al., 1997; cited from earlier work.
Series [8] relates to arachidonic acid-activated calcium channels. To be noted: Luo et al., 2001; cited from earlier work.
For series [9], the system named is S-nitrosylation-activated calcium channels. To be noted: Van Rossum et al., 2000; cited from earlier work.
The subject of series [10] is calcium-activated chloride channels. To be noted: Chorna-Ornan et al., 2001; cited from earlier work.
The test system of series [11] is purinergic P2X receptor calcium channels. To be noted: cited from earlier work.

“Also recorded” adds a separate entry of the source.

With Triton X-100, in series [1] (0.1% Triton X-100, positive control for cytotoxicity), the “fold change in AK release versus unstimulated control” value is reported as “approximately 6 fold”.

Consider `CNC[C@H](O)c1cccc(O)c1` [phenylephrine], for which, in [2], the “expression of 38 kDa calcineurin-independent MCIP1 isoform” value is reported as “unaffected”. Besides, the “expression of 28 kDa MCIP1 protein” value in series [2] (NRVM stimulated with phenylephrine) was “strongly induced”. Moreover, in [3], the “expression of TRPC3 channel protein in cardiomyocytes” value is “significantly increased”.

For the molecule `CC(C)NCC(O)c1ccc(O)c(O)c1` (stereo not drawn) [isoproterenol], in series [4], the “increase of average heart weight to body weight ratio versus vehicle-infused rats” value is recorded as 48%. Besides, in series [5] (Rat iso model), the TRPC3 protein expression result is on record as “↑” and the TRPC5 protein expression entry is listed as “increased expression”. Moreover, the TRPC5 protein expression entry in [5] (Rat iso model, listed as iso) was “↑”. In addition, the “induction of ventricular TRPC3 protein expression” value in series [5] (rat, chronic isoproterenol infusion, densitometry) is recorded as “approximately three-fold”.

Take `NCCOB(c1ccccc1)c1ccccc1` [Compound 2-APB, 2-amino-ethoxydiphenyl borane]: in series [1] (48 hours, 0.3 to 30 μM), the “cytotoxicity as measured by adenylate kinase release” value is listed as “no significant cytotoxicity; also recorded: no significant toxicity was observed at any concentration”. For the same molecule, the “expression of 38 kDa calcineurin-independent MCIP1 isoform” value in [2] is reported as “unaffected”. For the same molecule, the “PE-dependent induction of 28 kDa MCIP1 protein” value in series [2] (PE-stimulated NRVM, increasing concentrations) is recorded as “attenuates; also recorded: attenuated induction”. In addition, in series [6], the “inhibition of ryanodine receptors” value was “not inhibited”. Further, the “inhibition of voltage-gated calcium channels” value in series [7] is recorded as “not inhibited”. Further, the “inhibition of arachidonic acid-activated calcium channels” value in [8] is reported as “not inhibited”. The “inhibition of S-nitrosylation-activated calcium channels” value in series [9] is reported as “not inhibited”. In addition, in series [10], the “inhibition of calcium-activated chloride channels” value is given as “not inhibited”. For the same molecule, in series [11], the “inhibition of purinergic P2X receptor calcium channels” value is reported as “not inhibited”.

The values are drawn from patent US20050182011A1, “Inhibition of TRP channels as a treatment for cardiac hypertrophy and heart failure” (priority 2003, published 2005).
